# Laboratory results as given in patent US20240083885A1, “COMPOSITIONS AND METHODS FOR INHIBITING M PRO PROTEASE ACTIVITY AND FOR PREVENTING AND TREATING SARS-COV-2 INFECTION” (priority 2020, published 2024).
# Like-named read-outs stand apart in the source and are kept apart here.
# Tests used:
# cathepsin K = cathepsin K (Homo sapiens (Human), UniProt P43235); format: biochemical
# SARS-CoV-2 [1] = assay: microbe, parasite or virus in culture; format: cell-based; settings: Caco2-hACE2 cells; read-out: antiviral EC50 against SARS-CoV-2 in Caco2-hACE2 cells
# caspase-3 = caspase-3 (Homo sapiens (Human), UniProt P42574); assay: Host protease FRET-based enzymatic assay: caspase-3; format: biochemical; settings: read-out: inhibition of caspase-3 (IC50)
# Description: (§1) Enzymatic reactions against host proteases (Calpain I, Cathepisn K, Cathespsin L, Caspase-3 and Trypisn) were carried out as previously described (see, Xia, Z.; et al., ACS Pharmacol. Transl. Sci. 2021). Cathepsin B assay reaction was carried out as follows: Cathepsin B (catalog no. CTB-H5222) was diluted into 100 nM final concentration in a buffer containing 20 mM sodium acetate pH5.5, 1 mM EDTA and 2 mM DTT and the mixture was incubated for 30 min at 30° C. Activated Cathepsin B was further diluted to 500 pm in the reaction buffer (100 mM MES pH6.0, 1 mM EDTA, 2 mM DTT and 0.01% TWEEN 20).
# trypsin = assay: Host protease FRET-based enzymatic assay: trypsin; format: biochemical; settings: read-out: inhibition of trypsin (IC50)
# Cathepsin L [2] = biological target: T1, Cathepsin L (Homo sapiens (Human), UniProt P07711); assay: Host protease FRET-based enzymatic assay: cathepsin L; format: biochemical
# Description: The cathepsin L enzymatic assay was carried out as follows: human liver cathepsin L (EMD Millipore 219402) was activated by incubating at reaction buffer (20 mM sodium acetate, 1 mM EDTA and 5 mM DTT pH5.5) for 30 min at 30° C. Upon activation, the assay was assembled in 96-well plates with 100 μl of 300 pM cathepsin L protein in cathepsin L reaction buffer. Then 1 μl testing compound at various concentrations was added to each well and incubated at 30° C. for 30 min. The enzymatic reaction was initiated by adding 1 μl of 100 μM FRET substrate Z-Phe-Arg-AMC (the final substrate concentration is about 1 μM). The reaction was monitored in a Cytation 5 image reader with filters for excitation at 360/40 nm and emission at 460/40 nm at 30° C. for 1 hr. The IC50 values were calculated as described in above section.
# as §1
# calpain I [3] = biological target: T2, calpain I (Homo sapiens (Human), UniProt P07384); settings: read-out: Additional off targets: Calpain I IC50; cited from earlier work
# SARS-CoV-2 [4] = assay: microbe, parasite or virus in culture; format: cell-based; settings: read-out: antiviral EC50 against SARS-CoV-2 in Vero E6 cells
# Cathepsin L [5] = biological target: T1, Cathepsin L; settings: read-out: Cathepsin L IC50; cited from earlier work
# calpain I [6] = biological target: T2, calpain I; assay: Host protease FRET-based enzymatic assay: calpain I; format: biochemical
# Description: as §1
# Cathepsin B = Cathepsin B (Homo sapiens (Human), UniProt P07858); assay: Host protease FRET-based enzymatic assay: cathepsin B; format: biochemical
# Description: as §1
# T1 sequence (P07711 114-333 limits assumed): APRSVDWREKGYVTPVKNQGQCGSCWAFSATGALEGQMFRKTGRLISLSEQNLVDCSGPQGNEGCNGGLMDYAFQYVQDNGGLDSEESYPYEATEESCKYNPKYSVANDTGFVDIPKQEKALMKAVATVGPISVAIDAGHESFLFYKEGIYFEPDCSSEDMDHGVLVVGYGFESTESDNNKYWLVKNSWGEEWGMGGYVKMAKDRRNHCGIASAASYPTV
# Sequence of caspase-3 (P42574 29-175 limits assumed): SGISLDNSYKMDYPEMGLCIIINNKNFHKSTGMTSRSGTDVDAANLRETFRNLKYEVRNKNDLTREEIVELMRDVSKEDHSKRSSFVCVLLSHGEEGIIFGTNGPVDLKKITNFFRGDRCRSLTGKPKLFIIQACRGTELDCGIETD
# Sequence of caspase-3 (P42574 176-277 limits assumed): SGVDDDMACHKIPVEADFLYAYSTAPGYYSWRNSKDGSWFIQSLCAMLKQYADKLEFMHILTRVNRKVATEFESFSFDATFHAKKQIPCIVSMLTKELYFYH
# Sequence of cathepsin K (P43235 115-329 limits assumed): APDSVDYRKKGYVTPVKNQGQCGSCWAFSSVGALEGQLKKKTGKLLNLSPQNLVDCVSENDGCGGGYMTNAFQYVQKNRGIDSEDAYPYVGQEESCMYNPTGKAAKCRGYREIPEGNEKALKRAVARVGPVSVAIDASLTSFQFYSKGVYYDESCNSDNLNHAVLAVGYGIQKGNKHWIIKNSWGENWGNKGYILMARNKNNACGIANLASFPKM
compound,measurement,setting,value
"CC(C)C[C@H](NC(=O)OCc1ccccc1)C(=O)N[C@@H](CC1CCNC1=O)C(O)S(=O)(=O)[O-].[Na+] (some centres unmarked) [GC-376, reference compound]",inhibition of cathepsin K,cathepsin K,potent inhibition
same,EC50,SARS-CoV-2 [1],2900 nM
same,IC50,caspase-3,> 20000 nM
same,inhibition of cathepsin L (IC50),Cathepsin L [2],potent inhibition
same,IC50,calpain I [3],74 nM
same,EC50,SARS-CoV-2 [4],1510 nM
same,IC50,Cathepsin L [5],0.99 nM
same,CC50,Vero E6 cells,> 125000 nM
same,inhibition of calpain I,calpain I [6],potent inhibition
same,inhibition of cathepsin B,Cathepsin B,potent inhibition
